pIC50: −log10 of the molar value.
Molecular target: T1, human type 1 glycine transporter (GlyT1) (Homo sapiens, UniProt P48067)
T1 construct: T98G cells (glioma cells) expressing human type 1 glycine transporter (GlyT1) were used
T1 sequence (P48067 1-706): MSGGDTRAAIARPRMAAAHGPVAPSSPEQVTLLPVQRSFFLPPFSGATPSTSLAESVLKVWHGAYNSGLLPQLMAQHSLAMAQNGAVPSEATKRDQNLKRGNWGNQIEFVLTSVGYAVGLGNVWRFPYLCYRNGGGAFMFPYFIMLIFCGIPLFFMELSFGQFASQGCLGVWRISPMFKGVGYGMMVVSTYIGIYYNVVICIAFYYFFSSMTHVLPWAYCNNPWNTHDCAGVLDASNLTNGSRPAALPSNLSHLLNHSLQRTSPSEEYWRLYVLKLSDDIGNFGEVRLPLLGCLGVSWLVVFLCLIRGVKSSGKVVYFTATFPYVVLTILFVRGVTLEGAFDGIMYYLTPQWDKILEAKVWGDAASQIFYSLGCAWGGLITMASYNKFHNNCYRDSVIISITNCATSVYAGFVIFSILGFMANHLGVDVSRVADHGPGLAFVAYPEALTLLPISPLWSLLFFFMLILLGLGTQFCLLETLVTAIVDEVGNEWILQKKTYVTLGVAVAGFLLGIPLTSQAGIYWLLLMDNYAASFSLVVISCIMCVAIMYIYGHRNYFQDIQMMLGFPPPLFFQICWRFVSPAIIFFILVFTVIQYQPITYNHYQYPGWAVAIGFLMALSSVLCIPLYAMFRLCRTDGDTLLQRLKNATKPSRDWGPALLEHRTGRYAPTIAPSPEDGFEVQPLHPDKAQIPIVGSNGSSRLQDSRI
Assay: Glycine uptake inhibition experiment ([3H]glycine uptake)
Format: cell-based
Conditions: GlyT1
Summary of the method: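 T98G glioma cells expressing human GlyT1 were pretreated 10 min with compound in HEPES buffer pH 7.4 (0.2% BSA), then incubated with compound plus 250 nM final [3H]glycine for 15 min at room temperature. Intracellular radioactivity was counted after NaOH lysis; 10 μM ALX5407 defined non-specific uptake. IC50 came from 10^−9–10^−5 M curves.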

Row | Molecule | pIC50
1 | O=C(NC(c1cccc(-c2cn[nH]c2)c1)C1(O)CCCC1)c1cccc(C(F)(F)F)c1Cl (stereo not drawn) [Compound 9, 2-chloro-N-{(1-hydroxycyclopentyl)[3-(1H-pyrazol-4-yl)phenyl]methyl}-3-(trifluoromethyl)benzamide] | 6.96
2 | O=C(NC(c1cc(Cl)ccc1Cl)C1(O)CCC(F)(F)CC1)c1nccc(C(F)(F)F)c1Cl (single isomer, unassigned) [Compound 235, 3-chloro-N-[(2,5-dichlorophenyl)(4,4-difluoro-1-hydroxycyclohexyl)methyl]-4-(trifluoromethyl)pyridine-2-carboxamide] | 6.13
3 | 3,4-dichloro-N-[(2-chloro-3-fluorophenyl)(cis-4-fluoro-1-hydroxycyclohexyl)methyl]benzamide [Compound 252] | 5.33
4 | O=C(NC(c1cc(Cl)cc(Cl)c1)C1(O)CCCC1)c1nccc(C(F)(F)F)c1Cl (single isomer, unassigned) [Compound 115, 3-chloro-N-[(3,5-dichlorophenyl)(1-hydroxycyclopentyl)methyl]-4-(trifluoromethyl)pyridine-2-carboxamide] | 7.23
5 | O=C(NC(c1cccc(F)c1)C1(O)CCCC1)c1cccc(C(F)(F)F)c1Cl (stereo not drawn) [Compound 65, 2-chloro-N-[(3-fluorophenyl)(1-hydroxycyclopentyl)methyl]-3-(trifluoromethyl)benzamide] | 6.57
6 | CCn1cc(-c2cccc(C(NC(=O)c3cccc(C)c3Cl)C3(O)CCC(F)(F)CC3)c2)cn1 (stereo not drawn) [Compound 126, 2-chloro-N-{(4,4-difluoro-1-hydroxycyclohexyl)[3-(1-ethyl-1H-pyrazol-4-yl)phenyl]methyl}-3-methylbenzamide] | 6.14
7 | O=C(NC(c1cccc(Cl)n1)[C@]1(O)CC[C@@H](F)CC1)c1nccc(C(F)(F)F)c1Cl (single isomer, unassigned) [Compound 274, 3-chloro-N-[(6-chloropyridin-2-yl)(cis-4-fluoro-1-hydroxycyclohexyl)methyl]-4-(trifluoromethyl)pyridine-2-carboxamide] | 7.11
8 | O=C(NC(c1ccccc1)[C@]1(O)CC[C@@H](F)CC1)c1nccc(C(F)(F)F)c1Cl (stereo partly drawn) [Compound 158, 3-chloro-N-[(cis-4-fluoro-1-hydroxycyclohexyl)(phenyl)methyl]-4-(trifluoromethyl)pyridine-2-carboxamide] | 6.46
9 | Cc1cccc(C(=O)NC(c2cccc(F)c2Cl)[C@]2(O)CC[C@@H](F)CC2)c1Cl (single isomer, unassigned) [Compound 287, 2-chloro-N-[(2-chloro-3-fluorophenyl)(cis-4-fluoro-1-hydroxycyclohexyl)methyl]-3-methylbenzamide] | 6.02
10 | O=C(NC(c1cccc(F)c1Cl)[C@]1(O)CC[C@@H](F)CC1)c1ccc(Cl)nc1-n1nccn1 (single isomer, unassigned) [Compound 370, 6-chloro-N-[(2-chloro-3-fluorophenyl)(cis-4-fluoro-1-hydroxycyclohexyl)methyl]-2-(2H-1,2,3-triazol-2-yl)pyridine-3-carboxamide] | 5.52
11 | O=C(NC(c1cccnc1Cl)[C@]1(O)CC[C@@H](F)CC1)c1ccnc(C(F)(F)F)c1Cl (single isomer, unassigned) [Compound 321, 3-chloro-N-[(2-chloropyridin-3-yl)(cis-4-fluoro-1-hydroxycyclohexyl)methyl]-2-(trifluoromethyl)pyridine-4-carboxamide] | 6.23
12 | O=C(NC(c1cccc(F)c1Cl)[C@]1(O)CC[C@@H](F)CC1)c1cc(-n2nccn2)ccc1Cl (single isomer, unassigned) [Compound 336, 2-chloro-N-[(2-chloro-3-fluorophenyl)(cis-4-fluoro-1-hydroxycyclohexyl)methyl]-5-(2H-1,2,3-triazol-2-yl)benzamide] | 6.16
13 | O=C(NC(c1cccc(F)c1Cl)[C@]1(O)CC[C@@H](F)CC1)c1ccccc1OC(F)(F)F (single isomer, unassigned) [Compound 282, N-[(2-chloro-3-flurophenyl)(cis-4-fluoro-1-hydroxycyclohexyl)methyl]-2-(trifluoromethoxy)benzamide] | 5.47
14 | O=C(NC(c1cccc(Cl)n1)[C@]1(O)CC[C@@H](F)CC1)c1ccc(C(F)(F)F)nc1Cl (single isomer, unassigned) [Compound 339, 2-chloro-N-[(6-chloropyridin-2-yl)(cis-4-fluoro-1-hydroxycyclohexyl)methyl]-6-(trifluoromethyl)pyridine-3-carboxamide] | 6.85
15 | O=C(NC(c1cccc(F)c1Cl)[C@]1(O)CC[C@@H](F)CC1)c1cc(C(F)(F)F)ncc1Cl (single isomer, unassigned) [Compound 280, 5-chloro-N-[(2-chloro-3-fluorophenyl)(cis-4-fluoro-1-hydroxycyclohexyl)methyl]-2-(trifluoromethyl)pyridine-4-carboxamide] | 6.82
16 | CN(C)Cc1cccc(C(NC(=O)c2nccc(C(F)(F)F)c2Cl)C2(O)CCCC2)c1 (stereo not drawn) [Compound 112, 3-chloro-N-[{3-[(dimethylamino)methyl]phenyl}(1-hydroxycyclopentyl)methyl]-4-(trifluoromethyl)pyridine-2-carboxamide] | 5.74
17 | O=C(NC(c1cccc(-c2cnn(CC(F)(F)F)c2)c1)C1(O)CCC(F)(F)CC1)c1nccc(C(F)(F)F)c1Cl (stereo not drawn) [Compound 132, 3-chloro-N-[(4,4-difluoro-1-hydroxycyclohexyl){3-[1-(2,2,2-trifluoroethyl)-1H-pyrazol-4-yl]phenyl}methyl]-4-(trifluoromethyl)pyridine-2-carboxamide] | 6.89

The remaining molecules from weak to strong by pIC50, led by results:

Row | pIC50 | Molecule
18 | 5.80 | O=C(NC(c1cccnc1)[C@]1(O)CC[C@@H](F)CC1)c1nccc(C(F)(F)F)c1Cl (single isomer, unassigned) [Compound 266, 3-chloro-N-[(cis-4-fluoro-1-hydroxycyclohexyl)(pyridin-3-yl)methyl]-4-(trifluoromethyl)pyridine-2-carboxamide]
19 | 5.82 | O=C(N[C@H](c1cccc(Br)c1)[C@]1(O)CC[C@H](F)CC1)c1nccc(C(F)(F)F)c1Cl [Compound 101, N-[(R)-(3-bromophenyl)(trans-4-fluoro-1-hydroxycyclohexyl)methyl]-3-hcloro-4-(trifluoromethyl)pyridine-2-carboxamide]
20 | 6.00 | O=C(N[C@H](c1cccc(Br)c1)C1(O)CCCC1)c1nccc(C(F)(F)F)c1Cl [Compound 34, N-[(R)-(3-bromophenyl)(1-hydroxycyclopentyl)methyl]-3-chloro-4-(trifluoromethyl)pyridine-2-carboxamide]
21 | 6.08 | CCn1cc(-c2cccc(C(NC(=O)c3cccc4ccccc34)C3(O)CCC(F)(F)CC3)c2)cn1 (stereo not drawn) [Compound 138, N-{(4,4-difluoro-1-hydroxycyclohexyl)[3-(1-ethyl-1H-pyrazol-4-yl)phenyl]methyl}naphthalene-1-carboxamide]
22 | 6.19 | O=C(NC(c1ccc(Cl)nc1)C1(O)CCC(F)(F)CC1)c1nccc(C(F)(F)F)c1Cl (single isomer, unassigned) [Compound 277, 3-chloro-N-[(6-chloropyridin-3-yl)(4,4-difluoro-1-hydroxycyclohexyl)methyl]-4-(trifluoromethyl)pyridine-2-carboxamide]
23 | 6.37 | CCn1cc(-c2cccc(C(NC(=O)c3nccc4ccccc34)C3(O)CCC(F)(F)CC3)c2)cn1 (stereo not drawn) [Compound 139, N-{(4,4-difluoro-1-hydroxycyclohexyl)[3-(1-ethyl-1H-pyrazol-4-yl)phenyl]methyl}isoquinoline-1-carboxamide]
24 | 6.48 | O=C(NC(c1cccnc1Cl)C1(O)CCC(F)(F)CC1)c1cccc(C(F)(F)F)c1Cl (single isomer, unassigned) [Compound 357, 2-chloro-N-[(2-chloropyridin-3-yl)(4,4-difluoro-1-hydroxycyclohexyl)methyl]-3-(trifluoromethyl)benzamide]
25 | 6.51 | CCn1cc(-c2cccc(C(NC(=O)c3cccc(Cl)c3C)C3(O)CCC(F)(F)CC3)c2)cn1 (stereo not drawn) [Compound 124, 3-chloro-N-{(4,4-difluoro-1-hydroxycyclohexyl)[3-(1-ethyl-1H-pyrazol-4-yl)phenyl]methyl}-2-methylbenzamide]
26 | 6.55 | O=C(NC(c1cc(Cl)ccc1Cl)C1(O)CCC(F)(F)CC1)c1nccc(C(F)(F)F)c1Cl (single isomer, unassigned) [Compound 234, 3-chloro-N-[(2,5-dichlorophenyl)(4,4-difluoro-1-hydroxycyclohexyl)methyl]-4-(trifluoromethyl)pyridine-2-carboxamide]
27 | 7.25 | O=C(NC(c1cccc(F)c1Cl)[C@]1(O)CC[C@@H](F)CC1)c1ccnc(C(F)(F)F)c1Cl (single isomer, unassigned) [Compound 223, 3-chloro-N-[(2-chloro-3-fluorophenyl)(cis-4-fluoro-1-hydroxycyclohexyl)methyl]-2-(trifluoromethyl)pyridine-4-carboxamide]
